Read-outs that look alike come from different tables or passages of the source.
Columns and labels:
HPK1 (h) = HPK1 (h) (Homo sapiens (Human), UniProt Q92918); experiment: Inhibition against kinase activity of HPK1 (33P-ATP filter assay); type: biochemical
Experimental: Inhibition against kinase activity of HPK1 was measured as follows. Recombinant human HPK1 protein was mixed with the compounds in a reaction solution (8 mM MOPS, pH 7.0, 0.2 mM EDTA, 0.33 mg/mL myelin basic protein, 10 mM magnesium acetate, and 15 μM [gamma-33P-ATP]). The mixture was incubated at room temperature for 40 minutes. The reaction was terminated by adding phosphoric acid at a final concentration of 0.5%. A 10 μL aliquot of the reaction solution was spotted onto a P30 filter, washed four times in 0.425% phosphoric acid solution for 4 minutes each, and washed once with methanol. The filters were dried, and HPK1 activity was measured via scintillation counting. The HPK1 activity observed in the control group free of the compounds was set as 100%, and the inhibition by the compounds was expressed relative to this control value. To calculate the IC50 value, the compounds were diluted in 9 concentrations, starting from a maximum of 1 μM in a threefold serial dilution. The IC50 was defined as the concentration at which 50% inhibition was observed.

SH-SY5Y = experiment: Anticancer activity in other cancer cell lines; type: cell-based; details: Homo sapiens
Experimental: (§1) The anticancer activity of the MLK3 and HPK1 kinase inhibitor compounds was evaluated using the human ovarian cancer cell line A2780 and the cisplatin-resistant cell line A2780/cis. A2780 and A2780/cis cells were cultured at a density of 4000 cells per well in 96-well plates and stabilized for one day. The compounds 1 to 3 synthesized in Example 1 were serially diluted starting from a concentration of 10 μM and applied to the cells. The treated cells were incubated for three days, and cell viability was measured using CCK8 reagent, with the concentration at which 50% of the cancer cells died expressed as the GI50.
(§2) Additionally, the anticancer activity of the compounds was also observed in other cancer cell lines (blood cancer, breast cancer, ovarian cancer, lung cancer, and brain cancer), as well as in drug-resistant cancer cell lines (doxorubicin-resistant blood cancer K562/ADM; and paclitaxel-resistant breast cancer MDA-MB-231/PTX).

A549 = experiment: Anticancer activity in other cancer cell lines; type: cell-based; details: Homo sapiens
Experimental: as §1, §2

MDA-MB-453 = experiment: Anticancer activity in other cancer cell lines; type: cell-based; details: Homo sapiens
Experimental: as §1, §2

[1] = test system: paclitaxel-resistant breast cancer MDA-MB-231/PTX; experiment: Anticancer activity in other cancer cell lines; type: cell-based; details: Homo sapiens
Experimental: as §1, §2

K562 = experiment: Anticancer activity in other cancer cell lines; type: cell-based; details: Homo sapiens
Experimental: as §1, §2

MDA-MB-231 = experiment: Anticancer activity in other cancer cell lines; type: cell-based; details: Homo sapiens
Experimental: as §1, §2

SKOV3 = experiment: Anticancer activity in other cancer cell lines; type: cell-based; details: Homo sapiens, SK-OV-3
Experimental: as §1, §2

[2] = test system: doxorubicin-resistant blood cancer K562/ADM; experiment: Anticancer activity in other cancer cell lines; type: cell-based; details: Homo sapiens
Experimental: as §1, §2

U937 = experiment: Anticancer activity in other cancer cell lines; type: cell-based; details: Homo sapiens, U-937
Experimental: as §1, §2

Human PBMC = experiment: IL-2 measurement for T cell activation enhancement; type: cell-based; details: CD3/CD28 Dynabeads, 6 days, FIG. 2
Experimental: Human PBMC was seeded at a density of 2×10^5 cells per well in a 96-well plate. The cells were pretreated for one hour with serial dilutions of the compounds 1 to 3 synthesized in Example 1 starting from 3 μM. Afterward, CD3/CD28 Dynabeads were added to the cells at a 1:1 ratio and incubated for 6 days. After incubation, the cells and media were analyzed using the Sartorius human T cell activation cell and cytokine profiling kit with the iQue system. IL-2, a biomarker used to assess T cell activation, was measured. The results were calculated by setting the positive control group (treated with Dynabeads alone) as 100%.

[3] = test system: cisplatin-resistant cell line A2780/cis; experiment: Anticancer activity, CCK8 cell viability; type: cell-based; details: Homo sapiens, A2780cis, 72 h, A2780/cis cells, three days, FIG. 1
Experimental: as §1

[4] = test system: human ovarian cancer cell line A2780; experiment: Anticancer activity, CCK8 cell viability; type: cell-based; details: 72 h, A2780 cells, three days, FIG. 1
Experimental: as §1

MLK3 (h) = MLK3 (h) (Homo sapiens, UniProt Q16584); experiment: Inhibition against kinase activity of MLK3 (33P-ATP filter assay); type: biochemical
Experimental: The kinase inhibition activity against MLK3 was measured as follows. Recombinant human […] protein was mixed with the compounds in a reaction solution (8 mM MOPS, pH 7.0, 0.2 mM EDTA, 0.33 mg/mL myelin basic protein, 5 mM DTT, 10 mM magnesium acetate, and 45 μM [gamma-33P-ATP]). The mixture was incubated at room temperature for 40 minutes. The reaction was terminated by adding phosphoric acid at a final concentration of 0.5%. A 10 μL aliquot of the reaction solution was then spotted onto a P30 filter, which was washed four times in 0.425% phosphoric acid solution for 4 minutes each and then washed once in methanol. The filters were dried, and MLK3 activity was measured via scintillation counting. The MLK3 activity observed in the control group free of the compounds was set as 100%, and the inhibition by the compounds was expressed relative to this control value. To calculate the IC50 value, the compounds were diluted in 9 concentrations, starting from a maximum of 1 μM in a threefold serial dilution. The IC50 was defined as the concentration at which 50% inhibition was observed.

[5] = HPK1 (h), 15 μM ATP, read-out: IC50
[6] = approximate value, read-out: IC50 value for HPK1 inhibition
[7] = MLK3 (h), 45 μM ATP, read-out: IC50
[8] = approximate value, read-out: IC50 value for MLK3 inhibition

Sequence of MLK3 (h) (Q16584 whole entry, looked up): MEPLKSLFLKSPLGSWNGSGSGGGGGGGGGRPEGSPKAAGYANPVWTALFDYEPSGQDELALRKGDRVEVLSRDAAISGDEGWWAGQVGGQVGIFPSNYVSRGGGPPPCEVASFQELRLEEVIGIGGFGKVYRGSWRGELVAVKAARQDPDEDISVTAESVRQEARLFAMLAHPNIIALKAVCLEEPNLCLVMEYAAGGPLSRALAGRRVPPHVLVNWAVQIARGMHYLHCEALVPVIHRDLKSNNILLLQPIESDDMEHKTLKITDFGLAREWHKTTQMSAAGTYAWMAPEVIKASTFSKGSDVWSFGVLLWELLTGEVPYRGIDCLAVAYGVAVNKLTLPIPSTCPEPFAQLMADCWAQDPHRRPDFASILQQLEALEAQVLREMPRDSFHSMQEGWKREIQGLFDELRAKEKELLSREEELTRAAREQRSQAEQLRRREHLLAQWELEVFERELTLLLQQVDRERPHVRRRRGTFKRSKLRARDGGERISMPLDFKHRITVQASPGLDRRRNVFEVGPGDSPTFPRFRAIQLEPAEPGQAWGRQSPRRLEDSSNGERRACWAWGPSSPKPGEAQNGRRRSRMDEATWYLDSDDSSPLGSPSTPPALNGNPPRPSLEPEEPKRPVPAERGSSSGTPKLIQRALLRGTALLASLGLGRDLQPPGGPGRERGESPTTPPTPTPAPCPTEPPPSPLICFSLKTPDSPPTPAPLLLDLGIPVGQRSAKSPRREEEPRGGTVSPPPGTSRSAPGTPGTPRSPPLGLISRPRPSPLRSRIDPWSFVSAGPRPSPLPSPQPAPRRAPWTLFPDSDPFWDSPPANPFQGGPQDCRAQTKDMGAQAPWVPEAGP
Sequence of HPK1 (h) (Q92918 whole entry): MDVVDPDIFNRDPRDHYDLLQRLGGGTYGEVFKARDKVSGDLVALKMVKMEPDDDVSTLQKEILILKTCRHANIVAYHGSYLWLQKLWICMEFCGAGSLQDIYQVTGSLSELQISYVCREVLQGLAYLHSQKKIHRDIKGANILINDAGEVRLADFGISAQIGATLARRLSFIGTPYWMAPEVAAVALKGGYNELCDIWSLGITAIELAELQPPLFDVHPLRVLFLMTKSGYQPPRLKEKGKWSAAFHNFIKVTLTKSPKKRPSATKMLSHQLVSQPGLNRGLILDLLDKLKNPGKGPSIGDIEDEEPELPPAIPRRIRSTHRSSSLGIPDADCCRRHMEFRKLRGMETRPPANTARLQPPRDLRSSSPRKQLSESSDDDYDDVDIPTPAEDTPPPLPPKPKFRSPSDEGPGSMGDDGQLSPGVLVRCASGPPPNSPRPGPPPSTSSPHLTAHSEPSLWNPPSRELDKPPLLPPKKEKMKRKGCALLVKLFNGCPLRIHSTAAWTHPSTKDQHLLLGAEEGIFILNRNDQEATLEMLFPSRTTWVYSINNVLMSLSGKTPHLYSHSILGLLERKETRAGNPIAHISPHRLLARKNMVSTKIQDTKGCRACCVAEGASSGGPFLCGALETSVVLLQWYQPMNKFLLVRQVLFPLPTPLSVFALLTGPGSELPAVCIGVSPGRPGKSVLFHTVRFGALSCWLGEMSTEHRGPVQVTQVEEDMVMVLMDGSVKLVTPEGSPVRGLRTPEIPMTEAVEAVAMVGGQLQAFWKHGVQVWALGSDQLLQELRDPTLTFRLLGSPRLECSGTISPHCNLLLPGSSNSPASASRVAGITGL

Row | IC50 (HPK1 (h); [5]) | IC50 (HPK1 (h); [6]) | GI50 (SH-SY5Y) | GI50 (A549) | GI50 (MDA-MB-453) | GI50 [1] | GI50 (K562) | GI50 (MDA-MB-231) | GI50 (SKOV3) | GI50 [2] | GI50 (U937) | GI50 [3] | GI50 [4] | IC50 (MLK3 (h); [7]) | IC50 (MLK3 (h); [8]) | Compound | IL-2 levels (T cell activation) (Human PBMC)
1 | 1 to 100 nM | ~30 nM | 390 nM | 1610 nM | 1020 nM | 990 nM | 430 nM | 1250 nM | 1700 nM | 3740 nM | 290 nM | ~400 nM | ~200 nM | 100 to 500 nM | ~140 nM | CC1(C)OC(=O)c2ccc(Nc3nc(Nc4ccc5c(c4)CCNC5)ncc3Cl)cc21 [Compound 1, 5-((5-chloro-2-((1,2,3,4-tetrahydroisoquinolin-6-yl)amino)pyrimidin-4-yl)amino)-3,3-dimethylisobenzofuran-1(3H)-one] | increased IL-2 levels
2 | 1 to 100 nM | ~50 nM | 280 nM | 1150 nM | 2900 nM | 770 nM | 1070 nM | 1030 nM | 1500 nM | 2280 nM | 440 nM | ~310 nM | ~210 nM | 100 to 500 nM | ~200 nM | CC1(C)OC(=O)c2cc(Nc3nc(Nc4ccc5c(c4)CCNC5)ncc3Cl)ccc21 [Compound 2, 6-((5-chloro-2-((1,2,3,4-tetrahydroisoquinolin-6-yl)amino)pyrimidin-4-yl)amino)-3,3-dimethylisobenzofuran-1(3H)-one] | increased IL-2 levels
3 | 500 to 1000 nM | ~900 nM | 550 nM | > 10000 nM | 1070 nM | 1110 nM | > 10000 nM | 1350 nM | > 10000 nM | > 10000 nM | > 10000 nM | – | – | > 1000 nM | – | CC1(C)OC(=O)c2ccc(Nc3ncc(Cl)c(Nc4ccc5c(c4)C(C)(C)OC5=O)n3)cc21 [Compound 3, 5,5′-((5-Chloropyrimidine-2,4-diyl)bis(azanediyl))bis(3,3-dimethylisobenzofuran-1(3H)-one)] | –
